Results as given in ChEMBL document CHEMBL4706501, “Drug repurposing: Discovery of troxipide analogs as potent antitumor agents” (Eur J Med Chem, 2020).

Tests used:
Type in all cases: functional, cell-based
[1] = test system: PC-3; assay: Antiproliferative activity against human PC3 cells assessed as reduction in cell viability after 24 to 72 hrs by MTT assay
[2] = test system: PC-9; assay: Antiproliferative activity against human PC9 cells assessed as reduction in cell viability after 24 to 72 hrs by MTT assay
[3] = test system: MCF7; assay: Antiproliferative activity against human MCF7 cells assessed as reduction in cell viability after 24 to 72 hrs by MTT assay
[4] = test system: MGC-803; assay: Antiproliferative activity against human MGC-803 cells assessed as reduction in cell viability after 24 to 72 hrs by MTT assay

O=c1[nH]cc(F)c(=O)[nH]1 [FLUOROURACIL] gave an IC50 [1] of 5.32 µM and an IC50 [2] of 4.12 µM.

COc1cc(C(=O)NC2CCCNC2)cc(OC)c1OC (stereo unspecified) [TROXIPIDE] showed an IC50 [3] greater than 100 µM, an IC50 [1] greater than 100 µM and an IC50 [2] greater than 100 µM. The IC50 [4] was greater than 100 µM.
